Laboratory results reported in patent publication US10477863B2, “Use of herbicidal compositions for controlling unwanted vegetation” (BASF SE, priority 2015, dated 2019).

System: Amaranthus palmeri
Assay: Field test, post-emergence spray: visual injury of Palmer amaranth rated 0 to 100
Type: in vivo
Conditions: 3 days after treatment, 0.25% non-ionic surfactant
Text: Dicamba was applied as Engenia™ herbicide [BAPMA salt-(bis(3-aminopropyl)methylamine))], while 2,4-DB was applied as the commercially available Butyrac® 200 (dimethylamine salt). Herbicides were applied at an appropriate weight of each product dissolved in 1 liter of water. All herbicide treatments were applied with 0.25% by volume of a non-ionic surfactant (Induce®; an adjuvant composition consisting of alkyl aryl polyoxyalkane ethers, alkanolamides, dimethyl siloxane and free fatty acids). The spray solution was applied by a CO2 powered backpack sprayer delivering the spray solution at a rate of 185 liter/ha. The spray solution was applied to a field naturally populated with Palmer amaranth (Amaranthus palmeri) with an average height of 4-6 inches in height, however, plants both larger and smaller plants were in the field at the time of application as well. Palmer amaranth was assessed for visual injury 3 days after treatment and injury was rated on a scale from 0 to 100, whereby 0 equals no herbicidal response and 100 equals complete control of the Palmer amaranth.

Compound | herbicidal activity against Amaranthus palmeri (% control), found (2,4-DB 17.5 g/ha a.i., Exp. No. 2) [% control] | herbicidal activity against Amaranthus palmeri (% control), found (2,4-DB 35 g/ha a.i., Exp. No. 3) [% control] | herbicidal activity against Amaranthus palmeri (% control), found (2,4-DB 52.5 g/ha a.i., Exp. No. 4) [% control] | herbicidal activity against Amaranthus palmeri (% control), found (dicamba 420 g/ha a.i., Exp. No. 1) [% control]
O=C(O)CCCOc1ccc(Cl)cc1Cl [2,4-DB, 4-(2,4-Dichlorophenoxy)butanoic acid] | 0 | 5 | 15 | 
COc1c(Cl)ccc(Cl)c1C(=O)O [dicamba, 3,6-Dichloro-2-methoxybenzoic acid] |  |  |  | 60
